From PubChem BioAssay (NCI) come the findings set out here.

Some test systems named below: SF-295 CNS; HT29 colon; CAKI-1 renal; COLO 205 colon; MDA-MB-435; UACC-257 melanoma; NCI-H226 lung; SW-620 colon; RPMI-8226 leukemia; NCI-H23 lung.
Common to all, as to assay: growth of human tumour cells (NCI), 48 h

Molecules are shown by their SMILES. Several values for one entry are separate records, joined by “and”; a condition that tells them apart may be missing. Equal entries are not always repeated.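 Grown in 96-well plates, cells were treated for 48 hours with each compound at five concentrations. Insufficient inhibition: endpoint recorded as highest concentration tested. GI50 marks 50% less growth. TGI denotes the concentration required for complete inhibition of growth.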

With `COc1ccc(Cl)cc1Nc1nc(C(F)(F)F)ccc1C(=O)N/N=C/c1ccccc1Cl`, the GI50 with SF-295 CNS was 0.27 µM; in the assay with HT29 colon it was 4.24 µM; with CAKI-1 renal, 0.994 µM; in the assay with COLO 205 colon, 1.7 µM; with MDA-MB-435, 2.61 µM; in the assay with UACC-257 melanoma it was 1.82 µM. Besides, the GI50 with NCI-H226 lung is 1.45 µM; in the assay with SW-620 colon it was 3.3 µM; in the assay with RPMI-8226 leukemia, 2.17 µM; in the assay with NCI-H23 lung, 2.99 µM. For the same compound, the TGI in the assay on SF-295 CNS is 1.36 µM; in the assay with HT29 colon it was over 100 µM; with CAKI-1 renal, 8.19 µM; with COLO 205 colon it was 4.18 µM; in the assay on MDA-MB-435, over 27.7 µM; in the assay with UACC-257 melanoma, 4.62 µM. Also, the TGI is 18.2 µM in the assay with NCI-H226 lung, over 100 µM with SW-620 colon, 6.81 µM in the assay on RPMI-8226 leukemia and over 31.4 µM in the assay on NCI-H23 lung.
For `CN(CO)c1nc(N(C)CO)nc(N(C)CO)n1`, the TGI in the assay with SF-295 CNS is over 73.4 µM; in the assay with HT29 colon, 71.2 µM and 144 µM; in the assay on CAKI-1 renal it was 77.4 µM and 65.7 µM; with COLO 205 colon it was 44.1 µM and 20.9 µM; with MDA-MB-435 it was 40.3 µM; in the assay on UACC-257 melanoma, 40.7 µM and 44.4 µM. Besides, the TGI is > 70.3 µM and 21.4 µM in the assay with NCI-H226 lung; 43.6 µM and 70.6 µM in the assay with SW-620 colon; > 91.4 µM and 43.4 µM in the assay with RPMI-8226 leukemia; 59.8 µM and 91.7 µM in the assay on NCI-H23 lung. The GI50 is 26.3 µM in the assay on HT29 colon; 26.9 µM in the assay with CAKI-1 renal; 20.9 µM in the assay with COLO 205 colon; 20.6 µM and 21.8 µM in the assay on UACC-257 melanoma; 24.8 µM and 9.99 µM in the assay on NCI-H226 lung; 11.5 µM in the assay with SW-620 colon. The GI50 in the assay with RPMI-8226 leukemia was 27.5 µM; in the assay with NCI-H23 lung it was 25.4 µM.
In the case of `O=C(Nc1cccc(-n2ccc3c(NC(=O)c4ccccc4)nccc32)c1)c1ccc(Cl)c(Cl)c1`, the GI50 in the assay with SF-295 CNS is 0.0645 µM; in the assay on HT29 colon, 0.0833 µM; with CAKI-1 renal, 0.0531 µM; with COLO 205 colon, 0.124 µM; in the assay on MDA-MB-435, 0.0275 µM; in the assay on UACC-257 melanoma, 1.2 µM. The GI50 was 0.568 µM in the assay with NCI-H226 lung, 0.106 µM with SW-620 colon, 0.263 µM in the assay on RPMI-8226 leukemia and 0.342 µM in the assay with NCI-H23 lung. The TGI with SF-295 CNS amounted to 1.31 µM; in the assay with HT29 colon it was 0.84 µM; with CAKI-1 renal it was 1.9 µM; in the assay on COLO 205 colon, 0.517 µM; with MDA-MB-435 it was 0.103 µM; in the assay on UACC-257 melanoma it was 2.98 µM. Also, the TGI was 3.65 µM in the assay with NCI-H226 lung, 1.48 µM in the assay with SW-620 colon, 1.16 µM in the assay with RPMI-8226 leukemia and 2.47 µM with NCI-H23 lung.
Consider `Cl.[O-]c1cccc2cccnc12.[O-]c1cccc2cccnc12.[O-]c1cccc2cccnc12.[O-]c1cccc2cccnc12.[Ti+4]`, for which the GI50 was 3.09 µM with SF-295 CNS; 0.914 µM in the assay on HT29 colon; 1.61 µM with CAKI-1 renal; 1.08 µM with COLO 205 colon; 11.6 µM in the assay on MDA-MB-435; 0.712 µM with UACC-257 melanoma. Besides, the GI50 in the assay with NCI-H226 lung is 7.9 µM; with SW-620 colon, 0.393 µM; with NCI-H23 lung it was 1.4 µM. In addition, the TGI was over 100 µM in the assay with SF-295 CNS; 6.86 µM with HT29 colon; over 100 µM in the assay on CAKI-1 renal; 3.55 µM in the assay with COLO 205 colon; over 100 µM in the assay on MDA-MB-435; over 35.1 µM with UACC-257 melanoma. The results for the TGI with NCI-H226 lung, in the assay on SW-620 colon and in the assay with RPMI-8226 leukemia were over 89.9 µM, over 100 µM and 2.67 µM, respectively.
For the compound `Cc1cc(C(=O)CC(Cl)=C(Cl)Cl)c(Cl)cc1Cl`, the GI50 in the assay with SF-295 CNS is 19.9 µM; in the assay on HT29 colon, 34.6 µM; in the assay on CAKI-1 renal it was 18 µM; in the assay with COLO 205 colon it was 27.7 µM; in the assay with MDA-MB-435, 17.1 µM; with UACC-257 melanoma, 19.5 µM. In addition, the GI50 with NCI-H226 lung is 23.9 µM; in the assay on SW-620 colon it was 21.7 µM; in the assay on RPMI-8226 leukemia it was 16.6 µM; in the assay with NCI-H23 lung it was 18.6 µM. Moreover, the TGI with SF-295 CNS was 54.8 µM; in the assay with HT29 colon it was over 100 µM; in the assay on CAKI-1 renal, 41.4 µM; with COLO 205 colon it was 86.1 µM; in the assay on MDA-MB-435, 43.1 µM; in the assay on UACC-257 melanoma it was 44.9 µM. For the same compound, the TGI was found to be 76.3 µM in the assay on NCI-H226 lung, 52.3 µM with SW-620 colon, 40.8 µM in the assay on RPMI-8226 leukemia and 37.9 µM with NCI-H23 lung.
Take `N#Cc1ccc(O)c(C2=NCC(c3ccc(-c4ccccc4)cc3)O2)c1` (stereo unspecified): the GI50 was 0.335 µM in the assay with SF-295 CNS; 0.866 µM in the assay on HT29 colon; 0.106 µM in the assay with CAKI-1 renal; 0.349 µM with COLO 205 colon; 0.665 µM with MDA-MB-435; 1.15 µM in the assay on UACC-257 melanoma. Also, the GI50 in the assay with NCI-H226 lung was 0.589 µM; with SW-620 colon, 0.387 µM; in the assay with RPMI-8226 leukemia, 0.416 µM; in the assay on NCI-H23 lung, 0.703 µM. Besides, the TGI with SF-295 CNS was 11.8 µM; with HT29 colon it was 24.1 µM; in the assay with CAKI-1 renal, 13.1 µM; in the assay with COLO 205 colon it was 14.8 µM; in the assay on MDA-MB-435 it was 51.6 µM; in the assay on UACC-257 melanoma, 7.96 µM. The TGI in the assay with NCI-H226 lung is 12.7 µM; with SW-620 colon it was 31.2 µM; in the assay on RPMI-8226 leukemia, over 100 µM; with NCI-H23 lung, 17.2 µM.
For the compound `Cc1cnc(-c2ccc(-c3ccc(NC(=O)Nc4cccc(C(F)(F)F)c4)cc3F)c3c2C(=O)NC3)[nH]1`, the GI50 in the assay on SF-295 CNS is 4.06 µM; with HT29 colon, 0.853 µM; in the assay with CAKI-1 renal it was 2.18 µM; with COLO 205 colon, 0.0469 µM; in the assay with MDA-MB-435, 12.6 µM; in the assay on UACC-257 melanoma, 13.5 µM. The GI50 in the assay with NCI-H226 lung is 0.933 µM; with SW-620 colon, 0.081 µM; with RPMI-8226 leukemia, 10.7 µM; with NCI-H23 lung, 4.42 µM. The TGI is 33.6 µM in the assay with SF-295 CNS; over 44.7 µM in the assay with HT29 colon; over 44.9 µM in the assay with CAKI-1 renal; 20.2 µM with COLO 205 colon; over 47.5 µM in the assay on MDA-MB-435; over 66 µM in the assay with UACC-257 melanoma. Besides, the TGI with NCI-H226 lung was over 42.7 µM; with SW-620 colon, 17.4 µM; in the assay with RPMI-8226 leukemia, 52.3 µM; with NCI-H23 lung it was 33.5 µM.
